Format in all cases: functional
Assay [1] deals with Botrytis cinerea. As to the kind of experiment: Antifungal activity against Benzimidalzole-resistant Botryotinia fuckeliana isolate Bc-20 infected compound-treated kidney bean leaves at 50 ppm after 4 days.
Assay [2] has as its system Botrytis cinerea. As to the kind of experiment: Antifungal activity against Benzimidalzole-resistant Botryotinia fuckeliana isolate Bc-20 infected compound-treated kidney bean leaves at 200 ppm after 4 days.
Assay [3] concerns Cercospora beticola. The assay is described as follows: Ratio of EC50 for […] to EC50 for Benzimidalzole-resistant Cercospora beticola isole Cb-19.
Assay [4] has as its system Botrytis cinerea. The assay is described as follows: Antifungal activity against Benzimidalzole-resistant Botryotinia fuckeliana isolate Bc-44 infected compound-treated kidney bean leaves at 0.8 ppm after 4 days.
Assay [5] relates to Cercospora beticola. As to the kind of experiment: Antifungal activity against Benzimidalzole-resistant Cercospora beticola isolate Cb-19 infected in sugar beet seedlings at 50 ppm applied as soil drench 3 days prior to inoculation.

Where only a bound is given, the exact number is not on record here.

For `C#CCOc1c(Cl)cc(N/C=N/OC)cc1Cl`, the Activity is 6% in the assay on Botrytis cinerea [1] and 11% with Botrytis cinerea [2]. Moreover, the Ratio EC50 in the assay with Cercospora beticola [3] is over 1000.
In the case of `C#CCOc1cc(N/C=N/OC)cc(Cl)c1OCC#C`, the Activity in the assay with Botrytis cinerea [4] was determined as 75%; in the assay with Cercospora beticola [5] it was 68%. In addition, in the assay on Cercospora beticola [3], the Ratio EC50 was over 1000.

The values above are taken from ChEMBL document CHEMBL3046025, “Fungitoxic Properties of N-Phenylformamidoximes in Control of Benzimidazole-Resistant Isolates of Fungi” (1992).
